For data set [1], the system named is VSV-G-pseudotype virus (pVSV-G). The experiment in a line: microbe, parasite or virus in culture. As to conditions: Vesicular stomatitis virus, read-out: %inh@10 µM (pVSV-G). In kind it is cell-based.
Data set [2] relates to EBOV-GP-Pseudotype Virus (pEBOV).
Data set [3] is described as follows: in vitro. As to conditions: human.
Data set [4] has as its system EBOV-GP-Pseudotype Virus (pEBOV). The experiment in a line: microbe, parasite or virus in culture. As to conditions: Zaire ebolavirus, 48 h; for EC50: HeLa, read-out: EC50 (μM) (pEBOV); for inhibition at 10 µM: M-HeLa, read-out: %inh@10 μM (pEBOV).
Data set [5] in a line: in vitro. As to conditions: chlorocebus sabaeus.
Data set [6] has as its system wild-type Zaire EBOV Mayinga 1976 strain (EBOV May). The experiment in a line: microbe, parasite or virus in culture. As to conditions: Zaire ebolavirus, Vero C1008, 72 h, read-out: EC50 (μM), replicative EBOV.

One may read the EC50 as the concentration giving half of the maximal effect. Turning to `CN1CCN(CCC(=O)Nn2c3ccccc3c3ccccc32)CC1` [Compound 3], the inhibition at 10 µM in data set [1] was determined as 10%. For the same compound, the “SI (pEBOV) (CC50/EC50)” value in data set [2] was found to be 62.5. The compound also displayed a CC50 at 24 h in “in vitro [3]” of 150 µM. For the same compound, the EC50 in data set [4] was found to be 2.4 µM.
Regarding `CN(C)CC(=O)Nn1c2ccccc2c2ccccc21` [Compound 4], the “antiviral activity against pEBOV, in words” value (shortened to “antiviral activity”) in data set [2] is “inactive”. Also, in data set [4], the inhibition at 10 µM was < 75%.
On the same counts, the results for `CN(C)CCC(=O)Nn1c2ccccc2c2ccccc21` [Compound 5] are “inactive” and < 75%.
In the case of `O=C(CCN1CCCC1)Nn1c2ccccc2c2ccccc21` [Compound 6], the inhibition at 10 µM in data set [1] is 9%. The “SI (pEBOV) (CC50/EC50)” value in data set [2] is given as 21.7. The CC50 at 24 h in the data set “in vitro [3]” stood at 28 µM. In addition, the EC50 in data set [4] turned out to be 1.29 µM.
`O=C(CCN1CCCCC1)Nn1c2ccccc2c2ccccc21` [Compound 7]: the inhibition at 10 µM in data set [1] amounted to 30%. Also, the “SI (pEBOV) (CC50/EC50)” value in data set [2] is given as 1.78. This compound showed a CC50 at 24 h in the data set “in vitro [3]” of 5 µM. The concentration giving a half-maximal response (EC50) in data set [4] came to 2.8 µM.
Consider `O=C(CCl)Nn1c2ccccc2c2ccccc21` [Compound 8], for which, in data set [2], the “antiviral activity” value was “inactive”. The inhibition at 10 µM in data set [4] was < 75%.
For the compound `O=C(CN1CCN(c2ccccc2)CC1)NN(c1ccccc1)c1ccccc1` [Compound 15, N′,N′-Diphenyl-2-(4-phenylpiperazin-1-yl)acetohydrazide], the CC50 in the data set “in vitro [3]” was > 10 µM. In data set [4], the EC50 is > 100 µM and the inhibition at 10 µM stood at 8%.
Turning to `O=C(CCN1CCN(c2ccccc2)CC1)NN(c1ccccc1)c1ccccc1` [Compound 16, N′,N′-Diphenyl-3-(4-phenylpiperazin-1-yl)propanehydrazide], in the data set “in vitro [3]”, the CC50 was > 10 µM. Besides, in data set [4], the inhibition at 10 µM came out at 70%.
Consider `CCOC(=O)C1CCN(CC(=O)NN(c2ccccc2)c2ccccc2)CC1` [Compound 17, Ethyl 1-(2-(2,2-Diphenylhydrazinyl)-2-oxoethyl)piperidine-4-carboxylate], for which the CC50 in the data set “in vitro [3]” is > 10 µM. The inhibition at 10 µM in data set [4] was found to be 47%.
As for `CCOC(=O)C1CCN(CCC(=O)NN(c2ccccc2)c2ccccc2)CC1` [Compound 18, Ethyl 1-(3-(2,2-Diphenylhydrazinyl)-3-oxopropyl)piperidine-4-carboxylate], the CC50 in the data set “in vitro [3]” was > 10 µM. Moreover, the inhibition at 10 µM in data set [4] was 24%.
As for `O=C(CCN1CCCCC1)NN(c1ccccc1)c1ccccc1` [Compound 19, N′,N′-Diphenyl-3-(piperidin-1-yl)propanehydrazide], the “antiviral activity” value in data set [2] is “inactive”. Further, in the data set “in vitro [3]”, the CC50 is > 10 µM. Besides, the inhibition at 10 µM in data set [4] was 60%.
`O=C(CN1CCOCC1)NN(c1ccccc1)c1ccccc1` [Compound 20, 2-Morpholino-N′,N′-diphenylacetohydrazide]: the CC50 in the data set “in vitro [3]” was > 10 µM. In addition, the inhibition at 10 µM in data set [4] is -1%.
`O=C(CCN1CCOCC1)NN(c1ccccc1)c1ccccc1` [Compound 21, 3-Morpholino-N′,N′-diphenylpropanehydrazide]: the CC50 in “in vitro [3]” was > 10 µM. Further, the inhibition at 10 µM in data set [4] is 29%.
On the same counts, the results for `O=C(CNCCN1CCOCC1)NN(c1ccccc1)c1ccccc1` [Compound 22, 2-((2-Morpholinoethyl)amino)-N′,N′-diphenylacetohydrazide] are > 10 µM and 27%.
Regarding `O=C(CCNCCN1CCOCC1)NN(c1ccccc1)c1ccccc1` [Compound 23, 3-((2-Morpholinoethyl)amino)-N′,N′-diphenylpropanehydrazide], in “in vitro [3]”, the CC50 was > 10 µM. In addition, in data set [4], the inhibition at 10 µM was found to be 42%.
With `O=C(CNCCc1ccccc1)NN(c1ccccc1)c1ccccc1` [Compound 24, 2-(Phenethylamino)-N′,N′-diphenylacetohydrazide], the CC50 in “in vitro [3]” is > 10 µM. The inhibition at 10 µM in data set [4] was 10%.
For the compound `O=C(CCNCCc1ccccc1)NN(c1ccccc1)c1ccccc1` [Compound 25, 3-(Phenethylamino)-N′,N′-diphenylpropanehydrazide], the CC50 in the data set “in vitro [3]” was > 10 µM. Also, the inhibition at 10 µM in data set [4] was determined as 61%.
Taken in the same sequence, the figures for `CCOC(=O)CCCCCCNCC(=O)NN(c1ccccc1)c1ccccc1` [Compound 26, Ethyl 7-((2-(2,2-Diphenylhydrazinyl)-2-oxoethyl)amino)heptanoate] were > 10 µM and 51%.
`CCOC(=O)CCCCCCNCCC(=O)NN(c1ccccc1)c1ccccc1` [Compound 27, Ethyl 7-((3-(2,2-Diphenylhydrazinyl)-3-oxopropyl)amino)heptanoate]: the CC50 in the data set “in vitro [3]” is > 10 µM. Further, the inhibition at 10 µM in data set [4] stood at 53%.
On the same counts, the results for `CCCCCC(=O)NN(c1ccccc1)c1ccccc1` [Compound 28, N′,N′-Diphenylhexanehydrazide] are > 10 µM and 67%.
In the case of `O=C(Cc1ccc(Br)cc1)NN(c1ccccc1)c1ccccc1` [Compound 29, 2-(4-Bromophenyl)-N′,N′-diphenylacetohydrazide], the CC50 in “in vitro [3]” was > 10 µM. Besides, in data set [4], the inhibition at 10 µM turned out to be 73%.
Turning to `O=C(CNCCC1CCN(Cc2ccccc2)CC1)NN(Cc1ccccc1)c1ccccc1` [Compound 30, N′-Benzyl-2-((2-(1-benzylpiperidin-4-yl)ethyl)amino)-N′-phenylacetohydrazide], the inhibition at 10 µM in data set [1] was -25%. The “SI (pEBOV) (CC50/EC50)” value in data set [2] was 62. The compound also displayed a CC50 at 24 h in the data set “in vitro [3]” of 106 µM. Moreover, in data set [4], the EC50 came out at 1.05 µM.
Turning to `O=C(CCNCCC1CCN(Cc2ccccc2)CC1)NN(Cc1ccccc1)c1ccccc1` [Compound 31, N′-Benzyl-3-((2-(1-benzylpiperidin-4-yl)ethyl)amino)-N′-phenylpropanehydrazide], the “antiviral activity” value in data set [2] was “inactive”. In “in vitro [3]”, the CC50 is > 10 µM. For the same compound, the inhibition at 10 µM in data set [4] was < 75%.
Regarding `O=C(CCNCCN1CCN(Cc2ccccc2)CC1)NN(Cc1ccccc1)c1ccccc1` [Compound 32, N′-Benzyl-3-((2-(4-benzylpiperazin-1-yl)ethyl)amino)-N′-phenylpropanehydrazide], in data set [1], the inhibition at 10 µM was -36%. Further, the “SI (pEBOV) (CC50/EC50)” value in data set [2] amounted to 19.2. In the data set “in vitro [3]”, this compound had a CC50 at 24 h of 70 µM. In addition, in data set [4], the EC50 is 3.63 µM.
Consider `CN1CCN(CC(=O)NN(Cc2ccccc2)c2ccccc2)CC1` [Compound 33], for which, in data set [2], the “antiviral activity” value was “inactive”. In addition, the CC50 in the data set “in vitro [3]” and in “in vitro [5]” was > 100 µM each time. For the same compound, the inhibition at 10 µM in data set [4] came to 13%. In addition, in data set [6], the EC50 is > 100 µM.
Take `CN1CCN(CCC(=O)NN(Cc2ccccc2)c2ccccc2)CC1` [Compound 34, N′-Benzyl-3-(4-methylpiperazin-1-yl)-N′-phenylpropanehydrazide]: the “antiviral activity” value in data set [2] is “inactive”. Besides, the CC50 in “in vitro [3]” is > 10 µM. Besides, the inhibition at 10 µM in data set [4] was < 75%.
For `CCOC(=O)C1CCN(CC(=O)NN(Cc2ccccc2)c2ccccc2)CC1` [Compound 35, Ethyl 1-(2-(2-Benzyl-2-phenylhydrazineyl)-2-oxoethyl)piperidine-4-carboxylate], in the data set “in vitro [3]”, the CC50 is > 100 µM. Also, the inhibition at 10 µM in data set [4] came out at 15%.
`COC(=O)C1CCN(CC(=O)NN(Cc2ccccc2)c2ccccc2)CC1` [Compound 36, Methyl 1-(2-(2-Benzyl-2-phenylhydrazineyl)-2-oxoethyl)piperidine-4-carboxylate]: the CC50 in “in vitro [3]” was > 100 µM. In addition, the inhibition at 10 µM in data set [4] stood at 24%.
As for `CCOC(=O)CCCCCCNCC(=O)NN(Cc1ccccc1)c1ccccc1` [Compound 37, Ethyl 7-((2-(2-Benzyl-2-phenylhydrazineyl)-2-oxoethyl)amino)heptanoate], the CC50 in “in vitro [3]” was > 100 µM. The inhibition at 10 µM in data set [4] came out at 30%.
Take `CCCCCC(=O)NN(Cc1ccccc1)c1ccccc1` [Compound 38, N′-Benzyl-N′-phenylhexanehydrazide]: the CC50 in the data set “in vitro [3]” was > 100 µM. Moreover, in data set [4], the inhibition at 10 µM worked out at 18%.
For `O=C(Cc1ccc(Br)cc1)NN(Cc1ccccc1)c1ccccc1` [Compound 39, N′-Benzyl-2-(4-bromophenyl)-N′-phenylacetohydrazide], in “in vitro [3]”, the CC50 was > 100 µM. Besides, in data set [4], the inhibition at 10 µM was 32%.
Take `O=C(CNCCC1CCN(Cc2ccccc2)CC1)N(c1ccccc1)c1ccccc1` [Compound 40, 2-((2-(1-Benzylpiperidin-4-yl)ethyl)amino)-N,N-diphenylacetamide]: in the data set “in vitro [3]”, the CC50 at 24 h stood at 100 µM. Besides, in data set [4], the inhibition at 10 µM worked out at 8%.
Regarding `CCOC(=O)C1CCN(CC(=O)N(c2ccccc2)c2ccccc2)CC1` [Compound 41, Ethyl 1-(2-(Diphenylamino)-2-oxoethyl)piperidine-4-carboxylate], in “in vitro [3]”, the CC50 was > 100 µM. The inhibition at 10 µM in data set [4] worked out at 40%.
As for `O=C(CNCCc1ccccc1)N(c1ccccc1)c1ccccc1` [Compound 42, 2-(Phenethylamino)-N,N-diphenylacetamide], in the data set “in vitro [3]”, the CC50 was > 100 µM. Moreover, in data set [4], the inhibition at 10 µM is 38%.
Taken in the same sequence, the figures for `CCOC(=O)CCCCCCNCC(=O)N(c1ccccc1)c1ccccc1` [Compound 43, Ethyl 7-((2-(Diphenylamino)-2-oxoethyl)amino)heptanoate] were > 100 µM and 35%.
As for `CCCCCC(=O)N(c1ccccc1)c1ccccc1` [Compound 44, N,N-Diphenylhexanamide], in “in vitro [3]”, the CC50 is > 100 µM. For the same compound, the inhibition at 10 µM in data set [4] was 32%.
As to `O=C(Cc1ccc(Br)cc1)N(c1ccccc1)c1ccccc1` [Compound 45, 2-(4-Bromophenyl)-N,N-diphenylacetamide], in “in vitro [3]”, the CC50 is > 100 µM. Also, the inhibition at 10 µM in data set [4] was 36%.

Source of the values: article PMC10150359 (Journal of Medicinal Chemistry, 2023).
